For orientation: MIC means the least concentration at which growth counts as inhibited. Read a high MIC as a need for much substance.

What all share (assay): ≥ marks a high value that may be exact or a test limit, other limits are often not marked, values filed in µg/mL are converted to µM
For experiment [1], the system named is Pseudomonas aeruginosa 8600.
In experiment [2] the test system is Pseudomonas aeruginosa 5167.
For experiment [3], the system named is Pseudomonas aeruginosa 1570.
The subject of experiment [4] is Staphylococcus aureus 5118.
The subject of experiment [5] is Staphylococcus aureus ATCC 9144.
For experiment [6], the system named is Staphylococcus aureus E4049.
Experiment [7] has as its system Bacillus subtilis CMCC 63501.
The subject of experiment [8] is Staphylococcus aureus CMCC 26003.
Experiment [9] relates to Listeria monocytogenes ATCC 19115.
Experiment [10] concerns Staphylococcus aureus ATCC 6538P.
Experiment [11] has as its system Staphylococcus aureus SR1550.
Experiment [12] relates to Escherichia coli K-12 594.
Experiment [13] deals with Streptococcus gordonii ATCC 10558.
Experiment [14] relates to Streptococcus mutans UA159.
The test system of experiment [15] is Streptococcus mutans GS-5.
Experiment [16] deals with Streptococcus sanguinis ATCC 49295.
Experiment [17] concerns Vibrio vulnificus 1H00066.
The subject of experiment [18] is Micrococcus luteus 1D00051.
Experiment [19] has as its system Staphylococcus aureus 1D00101.
Experiment [20] deals with Xanthomonas oryzae ITCC BB00026.
Experiment [21] concerns Salmonella enterica subsp. enterica serovar Typhi.
Experiment [22] concerns Candida albicans MTCC 227.
The test system of experiment [23] is Vibrio cholerae.
Experiment [24] has as its system Escherichia coli DH5alpha.
For experiment [25], the system named is Bacillus cereus.
The subject of experiment [26] is Xanthomonas axonopodis ITCC BD00029.
Experiment [27] concerns Fusarium solani MTCC 10158.
For experiment [28], the system named is Staphylococcus aureus ATCC 43300.
The test system of experiment [29] is Erwinia amylovora PMV 6076.
Experiment [30] concerns Penicillium expansum EPS 26.
Experiment [31] relates to Aspergillus niger CECT 2694.
The test system of experiment [32] is Rhizopus stolonifer CECT 2344.
Experiment [33] has as its system Xanthomonas vesicatoria 2133-2.
Experiment [34] concerns Fusarium oxysporum f. sp. lycopersici ATCC 201829.
For experiment [35], the system named is Pseudomonas syringae EPS 94.

Converted amounts (≈) assume the structure as drawn.

As to `CC(C)C[C@H](NC(=O)[C@H](CC(C)C)NC(=O)[C@H](CCCCN)NC(=O)[C@H](CCCCN)NC(=O)[C@H](CC(C)C)NC(=O)[C@H](CC(C)C)NC(=O)[C@H](CCCCN)NC(=O)[C@H](CC(C)C)NC(=O)[C@H](C)N)C(N)=O` [ALKLLKKLL], the MIC was 10.9 µM (≈ 11.3 µg/mL) in experiment [1], not below 123 µM in experiment [2] and not below 43.5 µM in experiment [3].
In the case of `CC[C@H](C)[C@H](NC(=O)CNC(=O)[C@H](CC(=O)O)NC(=O)[C@@H](N)CC(=O)O)C(=O)N[C@@H](Cc1ccccc1)C(=O)N[C@H](C(=O)N[C@@H](C)C(=O)N[C@@H](Cc1ccccc1)C(=O)N[C@H](C(=O)N[C@@H](C)C(=O)N[C@H](C(=O)N[C@@H](CC(N)=O)C(=O)N[C@H](C(=O)N[C@H](C(=O)N[C@@H](CC(C)C)C(=O)N[C@H](C(=O)N[C@H](C(=O)N[C@H](C(=O)N[C@@H](Cc1ccccc1)C(=O)N[C@@H](Cc1ccc(O)cc1)C(=O)O)[C@@H](C)CC)C(C)C)[C@@H](C)O)[C@@H](C)CC)[C@@H](C)CC)[C@@H](C)CC)[C@@H](C)CC)[C@@H](C)CC` [DDGIFIAFIAINIILTVIFY], the MIC in experiment [4] is 2.2 µM (≈ 5 µg/mL); in experiment [5], not below 271 µM; in experiment [6], not below 271 µM.
Consider `CC[C@H](C)[C@H](NC(=O)[C@H](CCCN=C(N)N)NC(=O)[C@H](CCCN=C(N)N)NC(=O)[C@H](Cc1c[nH]c2ccccc12)NC(=O)[C@@H](N)Cc1ccccc1)C(=O)N[C@@H](CCCN=C(N)N)C(=O)N[C@H](C(N)=O)C(C)C` [FWRRIRV], for which the MIC was not below 124 µM in experiment [7], not below 62 µM in experiment [8] and 31 µM (≈ 32 µg/mL) in [9].
As to `CC(C)C[C@H](NC(=O)[C@H](CC(C)C)NC(=O)[C@H](CC(C)C)NC(=O)[C@H](CC(C)C)NC(=O)[C@H](CC(C)C)NC(=O)[C@H](CCCCN)NC(=O)[C@H](CC(C)C)NC(=O)[C@@H](N)CCCCN)C(N)=O` [KLKLLLLL], the minimal inhibitory concentration (MIC) in experiment [10] is 8.39 µM (≈ 7.99 µg/mL); in experiment [11], not below 36.7 µM; in experiment [12], 21 µM (≈ 20 µg/mL).
As for `CC(C)C[C@H](NC(=O)[C@H](CCCN=C(N)N)NC(=O)[C@H](Cc1ccccc1)NC(=O)[C@H](Cc1ccccc1)NC(=O)[C@@H](NC(=O)[C@H](CO)NC(=O)[C@@H](N)CC(C)C)[C@@H](C)O)C(=O)N[C@@H](Cc1ccccc1)C(=O)N[C@@H](CC(N)=O)C(=O)NCC(=O)N[C@@H](CCCN=C(N)N)C(=O)N[C@@H](CCCN=C(N)N)C(=O)N[C@@H](CCCN=C(N)N)C(=O)N[C@@H](CCCN=C(N)N)C(=O)N[C@@H](CO)C(=O)N[C@H](C(=O)N[C@@H](CCC(N)=O)C(=O)N[C@@H](Cc1c[nH]c2ccccc12)C(=O)N[C@@H](CS)C(=O)N[C@@H](C)C(=O)O)C(C)C` [LSTFFRLFNGRRRRSVQWCA], the MIC in experiment [13] was 19.9 µM (≈ 49.8 µg/mL); in experiment [14], 4.27 µM (≈ 10.7 µg/mL); in [15] it was 5.33 µM (≈ 13.3 µg/mL); in experiment [16], not below 39.8 µM.
On to `CC[C@H](C)[C@H](NC(=O)[C@H](CS)NC(=O)[C@H](Cc1cnc[nH]1)NC(=O)[C@H](CCCN=C(N)N)NC(=O)[C@@H](N)CCCN=C(N)N)C(=O)N[C@@H](CCCCN)C(=O)N[C@@H](CCCCN)C(=O)N[C@@H](CS)C(=O)N[C@@H](CCSC)C(=O)N[C@@H](CCCCN)C(=O)N[C@@H](CO)C(=O)N[C@@H](CCCN=C(N)N)C(=O)N[C@@H](CCCCN)C(=O)N[C@@H](Cc1cnc[nH]1)C(=O)N[C@@H](CC(N)=O)C(=O)N[C@@H](CCC(=O)O)C(=O)N[C@@H](CCCN=C(N)N)C(=O)N[C@@H](CCSC)C(=O)N[C@H](C(=O)N[C@@H](CCCN=C(N)N)C(=O)N[C@H](C(=O)N[C@@H](CCCN=C(N)N)C(=O)N[C@@H](CCCN=C(N)N)C(=O)N[C@@H](CCCCN)C(=O)O)[C@@H](C)CC)[C@@H](C)CC` [RRHCIKKCMKSRKHNERMIRIRRK], for which the MIC in [17] was not below 300 µM; in experiment [18] it was 5 µM (≈ 15.8 µg/mL); in experiment [19] it was not below 40 µM.
`NCCCC[C@H](NC(=O)[C@H](CCCCN)NC(=O)[C@H](CO)NC(=O)[C@H](CO)NC(=O)[C@H](CCCCN)NC(=O)[C@H](Cc1c[nH]c2ccccc12)NC(=O)[C@H](CCCN=C(N)N)NC(=O)[C@H](Cc1c[nH]c2ccccc12)NC(=O)[C@H](CCCN=C(N)N)NC(=O)[C@@H](N)CO)C(=O)O` [SRWRWKSSKK]: the MIC in [20] was 10 µM (≈ 13.5 µg/mL); in experiment [21] it was 20 µM (≈ 27 µg/mL); in [22] it was not below 40 µM; in experiment [23] it was 30 µM (≈ 40.5 µg/mL); in experiment [24] it was 30 µM (≈ 40.5 µg/mL); in experiment [25], 30 µM (≈ 40.5 µg/mL). Also, the MIC came out at 10 µM (≈ 13.5 µg/mL) in experiment [26], 20 µM (≈ 27 µg/mL) in experiment [27] and 20 µM (≈ 27 µg/mL) in experiment [28].
As for `CC[C@H](C)[C@H](NC(=O)[C@H](CCCCN)NC(=O)[C@H](CCCCN)NC(=O)[C@H](Cc1ccccc1)NC(=O)[C@H](CC(C)C)NC(=O)[C@H](CCCCN)NC(=O)[C@@H](N)Cc1c[nH]c2ccccc12)C(=O)N[C@@H](CC(C)C)C(=O)N[C@@H](CCCCN)C(=O)N[C@@H](Cc1c[nH]c2ccccc12)C(=O)N[C@@H](CC(C)C)C(N)=O` [WKLFKKILKWL], the MIC in experiment [29] was 5.92 µM (≈ 8.89 µg/mL); in experiment [30], 22.4 µM (≈ 33.6 µg/mL); in experiment [31] it was 22.4 µM (≈ 33.6 µg/mL); in [32], not below 35.4 µM; in [33], 2 µM (≈ 3 µg/mL); in experiment [34] it was 1.73 µM (≈ 2.6 µg/mL). Also, the MIC in [35] worked out at 5.92 µM (≈ 8.89 µg/mL).

The values are drawn from DBAASP.
